# In US20230330081A1, “PHARMACEUTICAL COMPOSITION FOR TREATING TUMORS” (EISAI R&D MANAGEMENT CO., LTD., priority 2020, published 2023):
# Columns and labels:
# Type in all cases: in vivo
# [1] = tested on: mouse hepatocellular carcinoma cell line BNL 1 ME A.7R.1; experiment: Antitumor effect in mouse hepatocellular carcinoma cell line (BNL 1 ME A.7R.1) graft model
# Procedure: Example 3 Antitumor effect by combination of compound A and anti-PD-1 antibody in mouse hepatocellular carcinoma cell line (BNI, 1 ME A.7R.1) graft model
# The antitumor effect of administering compound A and anti-M-1 antibody was evaluated in BALB/c mice (BALB/cAnNCriCrli, female, Japan Charles River) with 10 mice per group.
# The grafted cells were pre-conditioned in BALB/c mice, A suspension of the mouse hepatocellular carcinoma cell line line BNL 1 ME A.7R.1 (ATCC) was subcutaneously grafted onto the right side of BALB/c mice (BALB/cArtNCriCrlj, male, Japan Charles River), at 5×10^6 cells per mouse. After grafting, the formed tumors were extracted and finely cut. The mixture was then stirred with a GentleMACS (Miltenvi Biotec K.K.) to obtain a monocellular suspension. After passing through a cell strainer, the cells were collected by centrifugation and cultured.
# (§1) The mouse hepatocellular carcinoma cell line BNL 1 ME A.7R.1 established by this method was suspended in HBSS to a concentration of 1×10^8/mL. The mixture was subsequently grafted onto the right side of BALB/c (BALB/cAnNCrICrlj, female, Japan Charles River) in amounts of 0.1 mL each, and the antitumor effect was evaluated.
# (§2) On the 4th day after grafting, the long and short diameters of the tumors were measured using an electronic digital caliper (Digimaticlm caliper by Mitsutoyo Corp.). The mice were divided into groups in such a manner that the average tumor volumes were the same in each group. The tumor volumes were calculated by the following formula.
# Tumor volume […]=Long diameter (mm)×short diameter (mm)×short diameter (mm)/2
# (§3) Compound A was dissolved in water for injection (Otsuka Pharmaceutical Factory, Inc.) to a concentration of 2.5 mg/mL. The anti-mouse PD-1 antibody (BioXcell) was diluted with physiological saline (Otsuka Pharmaceutical Factory, Inc.) to a concentration of 1 mg/mL.
# (§4) Mice in the compound A administration group were given compound A 1w oral administration at a dose of 25 mg/kg (10 mL/kg), once per day for 7 days. Mice in the anti-PD-1 antibody administration group were intraperitoneally administered a dose of 200 μg/mouse (200 μL/mouse) on day 0 and day 3, where the starting day of administration was defined as day 0. The mice in the compound A and anti-PD-1 antibody combination group were administered both drugs in the same manner described above.
# With the starting day of administration defined as day 0, the tumor volume of each mouse was measured on day 3 and day 7.
# The tumor volumes in the control group and in each group on day 7 were compared in Dunnett's multiple comparison test. The final significance level was as follows.
# [2] = tested on: mouse renal cell carcinoma cell line RAG; experiment: Antitumor effect in mouse renal cell carcinoma cell line (RAG) graft model
# Procedure: Example 2 Antitumor effect by combination of compound A and anti-PD-1 antibody in mouse renal cell carcinoma cell line (RAG) graft model
# The antitumor effect of administering compound A and anti-PD-1 antibody was evaluated in BALB/c mice (BALB/cAnNCriCrlj, female, Japan Charles River) with 10 mice per group.
# The grafted cells were pre-conditioned in BALB/c mice. The mouse renal cell carcinoma cell line RAG (ATCC) was suspended in EIBSS to a concentration of 2×10^8/mL. An equal volume of Matrigel™ matrix (Japan Becton Dickinson) was added to and thoroughly mixed with the suspension. The mixture was subcutaneously grafted on the right side of BALB/c mice (BALB/cAnNCriCrlj, female, Japan Charles River), at 0.1 mL each. After grafting, the formed tumors were extracted and finely cut. A Tumor Dissociation Kit, Mouse (Miltenyi Biotec K.K.) was then used for stirring in a GentleMACS (Miltenyi Biotec K.K.) to obtain a monocellular suspension. After passing through a 70 μm cell strainer, the cells were collected by centrifugation and cultured in medium containing 10% bovine serum.
# as §1, with “renal cell” for “hepatocellular”, “RAG” for “BNL 1 ME A.7R.1”, “[…].” for “1×10^8/mL.”, “(BALB/cAnNCriCrij,” for “(BALB/cAnNCrICrlj,”
# as §2, with “7th” for “4th”, “(Digirnatic™” for “(Digimaticlm”
# (§5) Tumor volume (mm)=Long diameter (n)×short diameter (mm)×short diameter (mm)/2
# as §3
# as §4, with “by” for “1w”, “days,” for “days.”, “lig/mouse” for “μg/mouse”
# With the starting day of administration defined as day 0, the tumor volume of each mouse was measured on day 3 and day 7, The mean tumor volumes in each group are shown in Table 2 and FIG. 2. […]
# [3] = tested on: mouse breast cancer cell line 4T1-Luc2 AcGFP; experiment: Antitumor effect in mouse breast cancer cell line (4T1-Luc2 AcGFP) graft model; settings: BALB/c mice, anti-PD-1 antibody 0.2 mg/mouse intraperitoneal day 0, 4, 7, 11
# Procedure: Example 1 Antitumor effect by combination of compound A and anti-PD-1 antibody in mouse breast cancer cell line (4T1-Luc2 AcGFP) graft model
# The antitumor effect of administering compound A and anti-PD-1 antibody was evaluated in BALB/c mice (BALB/cAriNCriCrij, female, Japan Charles River) with 6 mice per group.
# The mouse breast cancer cell line 4T1 (ATCC) was seeded in a 6-well microplate (Falcon), at a cell count of 1.5×10^5 per well. The culture medium used was RPMI-1640 medium containing 10% FBS, penicillin, streptomycin and 2-mercaptoethanol (FujiFilm-Wako). The seeded cells were cultured overnight using an incubator under conditions of 5% CO2, 37° C. The culture medium was replaced on the following day.
# Vector pPBcmvIP-mcs was constructed from PB-CMV-MCS-EF1α-Puro vector (SBI; Catalog No.: PB510B-1), removing EF1-Puro and substituting 1RES-Puro. A Luc2/AcGFP fusion gene was then inserted between the pPBcinvIP-mcs CMV promoter and IRES to express Luciferase (Luc) and Green Fluorescent Protein (GFP), to obtain vector pPBcinvIP Luc2-AcGFP. During the process of constructing each vector, insertion of the separated fragments was confirmed by an established method.
# The vector pPBcrnvIP Luc2-AcGFP in 10 mM Tris-C1 (pH 8.0) and 1 mlbJ EDTA (pH 8.0) (“TE Buffer”) (1.67 μg), Super PiggyBac Transposase Expression Vector (System Biosciences, LLC) in TE Buffer (0.33 μg) and X-treamGene reagent (Roche) (8 μL) were mixed, and the mixture was adjusted to a total amount of 210 μL with Opti-MEM (Thermo Fischer Scientific). The obtained mixture was allowed to stand at room temperature for 15 minutes, and then added to the cultured 4T1 cells. The medium was exchanged and subculturing was carried out in a T75 flask, after which culturing was continued under conditions of 5% CO2, 37° C. After 4 days, culturing was carried out in 2 μg/mL puromycin-containing medium.
# Cells were selected twice with a flow cytometer, using AcGFP positivity as the marker. A mycoplasma removal reagent was added to the cells and culturing was continued for 8 days.
# Cells of the mouse breast cancer cell line 4T1-Luc2 AcGFP established by the method described above were suspended in HBSS (FujiFilm-Wako) to a concentration of 2×10^7/mL. The mixture was grafted into mammary gland fat of BALB/c (BALB/cAriNCriCrlj, female. Japan Charles River) in amounts of 0.05 mL each, and the antitumor effect was evaluated.
# as §2, with “(Digimatic™” for “(Digimaticlm”, “Corp.),” for “Corp.).”
# as §5
# Compound A was dissolved in water for injection (Otsuka Pharmaceutical Factory, Inc.) to a concentration of 2.5 mg/mL. The anti-mouse PD-1 antibody (BioXcell) was diluted with PBS(−) (FujiFilm-Wako) to a concentration of 1 mg/mL. […]
# With the starting day of administration defined as day 0, the tumor volume of each mouse was measured on day 4, day 7, day 11 and day 14.
# The tumor volume on day 14 was statistically analyzed by a One-way ANOVA statistical test, or if […] was found in the test, by the Tukey-Kramer method. […]
# [4] = day 7, Dunnett's multiple comparison test
structure (smiles),measurement,setting,value
"CNC(=O)n1ccc2cc(Oc3ccnc(NC(=O)c4ccc(C5CCN(CCO)CC5)cc4)c3)c(OCCOC)cc21 [Compound A, 5-((2-(4-(1-(2-hydroxyethyl)piperidin-4-yl)benzamide)pyridin-4-yl)oxy)-6-(2-methoxyethoxy)-N-methyl-1H-indole-1-carboxamide]","mean tumor volume, Day 0","[1]; Day 0 (starting day of administration), BALB/c mice, 10 per group, compound A 25 mg/kg oral once per day for 7 days, anti-PD-1 antibody 200 μg/mouse intraperitoneal day 0 and 3",109.0 mm^3
same,"mean tumor volume, Day 3","[1]; Day 3, BALB/c mice, compound A 25 mg/kg oral once per day, anti-PD-1 antibody 200 μg/mouse intraperitoneal day 0 and 3",223.6 mm^3
same,"mean tumor volume, Day 7","[1]; Day 7, BALB/c mice, compound A 25 mg/kg oral once per day, anti-PD-1 antibody 200 μg/mouse intraperitoneal day 0 and 3",221.4 mm^3
same,difference in tumor volume between the control group and the treatment group,[1]; [4],No statistically significant difference
same,"mean tumor volume, Day 0","[2]; Day 0 (starting day of administration), BALB/c mice, 10 per group, compound A 25 mg/kg oral once per day for 7 days, anti-PD-1 antibody 200 ug/mouse intraperitoneal day 0 and 3",58.8 mm^3
same,"mean tumor volume, Day 3","[2]; Day 3, BALB/c mice, compound A 25 mg/kg oral once per day, anti-PD-1 antibody 200 ug/mouse intraperitoneal day 0 and 3",72.5 mm^3
same,"mean tumor volume, Day 7","[2]; Day 7, BALB/c mice, compound A 25 mg/kg oral once per day, anti-PD-1 antibody 200 ug/mouse intraperitoneal day 0 and 3",107.5 mm^3
same,difference in tumor volume between the control group and the treatment group,[2]; [4],No statistically significant difference
same,"mean tumor volume, Day 0","[3]; Day 0 (starting day of administration), 6 per group, compound A 25 mg/kg oral once per day for 14 days",77.3 mm^3
same,"mean tumor volume, Day 4","[3]; Day 4, compound A 25 mg/kg oral once per day",139.0 mm^3
same,"mean tumor volume, Day 7","[3]; Day 7, compound A 25 mg/kg oral once per day",131.2 mm^3
same,"mean tumor volume, Day 11","[3]; Day 11, compound A 25 mg/kg oral once per day",226.0 mm^3
same,"mean tumor volume, Day 14","[3]; Day 14, compound A 25 mg/kg oral once per day",314.6 mm^3
